We go through 26 compounds from patent publication US11066396B2 (priority 2016, dated 2021).

For one test, the target named is HDAC8 (Homo sapiens (Human), UniProt Q9BY41). The conditions noted are these: read-out: HDAC8 IC50.
The target in a further test is HDAC5 (Homo sapiens (Human), UniProt Q9UQL6). Particulars: read-out: HDAC5 IC50.
In a further test the target is HDAC1 (Homo sapiens (Human), UniProt Q13547). Particulars: read-out: HDAC1 IC50.

A value given as a limit tells only on which side of the number the result lay.

Chain of HDAC1 (Q13547 whole entry): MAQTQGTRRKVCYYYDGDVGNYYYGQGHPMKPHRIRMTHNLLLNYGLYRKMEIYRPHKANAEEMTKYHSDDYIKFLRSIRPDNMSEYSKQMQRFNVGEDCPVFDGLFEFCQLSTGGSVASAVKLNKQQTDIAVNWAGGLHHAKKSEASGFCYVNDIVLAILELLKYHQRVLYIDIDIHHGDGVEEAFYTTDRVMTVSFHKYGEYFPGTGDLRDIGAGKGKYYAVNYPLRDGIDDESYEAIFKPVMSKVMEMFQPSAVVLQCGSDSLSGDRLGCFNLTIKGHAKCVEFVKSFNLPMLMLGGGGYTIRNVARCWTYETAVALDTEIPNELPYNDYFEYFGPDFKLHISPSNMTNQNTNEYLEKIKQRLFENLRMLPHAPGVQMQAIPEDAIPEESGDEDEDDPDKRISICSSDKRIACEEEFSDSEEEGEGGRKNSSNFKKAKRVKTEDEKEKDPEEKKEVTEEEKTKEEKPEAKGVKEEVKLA
Chain of HDAC8 (Q9BY41 whole entry): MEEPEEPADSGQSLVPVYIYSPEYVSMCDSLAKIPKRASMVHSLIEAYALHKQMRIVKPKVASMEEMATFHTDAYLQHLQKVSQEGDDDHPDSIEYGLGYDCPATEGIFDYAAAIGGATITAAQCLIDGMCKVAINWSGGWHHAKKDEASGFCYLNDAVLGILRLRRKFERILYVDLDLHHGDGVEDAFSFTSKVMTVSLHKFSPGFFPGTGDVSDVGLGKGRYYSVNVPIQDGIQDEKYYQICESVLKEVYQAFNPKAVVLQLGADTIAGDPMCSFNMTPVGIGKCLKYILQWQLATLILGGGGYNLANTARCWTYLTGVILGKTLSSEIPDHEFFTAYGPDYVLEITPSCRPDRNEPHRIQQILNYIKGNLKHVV
Chain of HDAC5 (Q9UQL6 656-1122): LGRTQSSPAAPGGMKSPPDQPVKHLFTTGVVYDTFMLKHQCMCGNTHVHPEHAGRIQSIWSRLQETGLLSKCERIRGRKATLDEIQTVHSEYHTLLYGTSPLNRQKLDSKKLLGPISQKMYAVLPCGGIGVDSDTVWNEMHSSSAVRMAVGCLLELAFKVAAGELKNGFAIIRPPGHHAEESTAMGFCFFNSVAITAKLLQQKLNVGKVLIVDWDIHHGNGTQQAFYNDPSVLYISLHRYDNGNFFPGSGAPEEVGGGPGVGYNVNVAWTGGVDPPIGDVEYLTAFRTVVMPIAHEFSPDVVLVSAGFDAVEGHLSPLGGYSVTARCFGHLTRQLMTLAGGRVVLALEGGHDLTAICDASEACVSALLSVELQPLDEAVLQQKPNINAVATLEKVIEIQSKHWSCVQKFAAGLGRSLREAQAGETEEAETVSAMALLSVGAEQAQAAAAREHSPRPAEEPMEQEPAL
Experimental for HDAC1: Assay protocol: In brief, compounds were titrated in 100% DMSO via accoustic dispensing directly to the assay plate using the ECHO 550 [Labcyte]. HDAC enzymes at the concentrations indicated above were added in assay buffer to the assay plates containing the compounds using a Combi [Thermo Scientific]. The wells were mixed, and the plates were allowed to pre-incubate at ambient temperature for 3 h. After the 3 h, the appropriate substrate, at the concentrations indicated above, was added to the wells using a Combi. The wells were mixed, and the plates were allowed to incubate at ambient temperature for 1 h. After the 1 h, the appropriate Developer/stop solution was added to the wells using a Combi. The wells were mixed, and the plates were allowed to incubate at ambient temperature for 1 h. […] Data were analyzed using 4P curve fitting with Activity Base [IDBS] software.

What is called IC50 is the concentration at which inhibition is half-maximal. As to `Cc1nccc(OCc2ccc(-c3noc(C(F)(F)F)n3)c(F)c2)n1` [Example 241, 4-({3-fluoro-4-[5-(trifluoromethyl)-1,2,4-oxadiazol-3-yl]phenyl}methoxy)-2-methylpyrimidine], the IC50 is 3000 nM at HDAC8, 48 nM on HDAC5 and 3200 nM on HDAC1.

In the case of `O=C1COc2ccccc2N1Cc1ccc(-c2noc(C(F)(F)F)n2)cn1` [Example 462, 4-({5-[5-(trifluoromethyl)-1,2,4-oxadiazol-3-yl]pyridin-2-yl}methyl)-2H-1,4-benzoxazin-3(4H)-one], the figures for the IC50 on HDAC8, on HDAC5 and at HDAC1 were 2400 nM, 9.6 nM and 150 nM, respectively.

For the compound `O=C(NC(Cc1ccc(-c2noc(C(F)(F)F)n2)cn1)c1cccc(C(F)(F)F)c1)c1ncccn1` (racemic) [Example 484, N-(2-{5-[5-(trifluoromethyl)-1,2,4-oxadiazol-3-yl]pyridin-2-yl}-1-[3-(trifluoromethyl)phenyl]ethyl)pyrimidine-2-carboxamide], the IC50 stood at 2500 nM on HDAC8, 720 nM on HDAC5 and 600 nM at HDAC1.

`O=C(C1CCS(=O)(=O)CC1)N(Cc1ccc(-c2noc(C(F)(F)F)n2)cn1)c1ccccc1C(F)(F)F` [Example 201, 1,1-dioxo-N-({5-[5-(trifluoromethyl)-1,2,4-oxadiazol-3-yl]pyridin-2-yl}methyl)-N-[2-(trifluoromethyl)phenyl]-llambda~6~-thiane-4-carboxamide]: the IC50 on HDAC8 is 9200 nM; on HDAC5, 1400 nM; on HDAC1 it was 4000 nM.

For `Cc1ccncc1COc1ccc(-c2noc(C(F)(F)F)n2)cn1` [Example 202, 2-[(4-methylpyridin-3-yl)methoxy]-5-[5-(trifluoromethyl)-1,2,4-oxadiazol-3-yl]pyridine], the results for the IC50 at HDAC8, on HDAC5 and at HDAC1 were 900 nM, 730 nM and 2200 nM, respectively.

Consider `O=C1CCC(c2ccccc2)N1c1ccc(-c2noc(C(F)(F)F)n2)c(F)c1` (stereo not drawn) [Example 43, 1-(3-fluoro-4-(5-(trifluoromethyl)-1,2,4-oxadiazol-3-yl)phenyl)-5-phenylpyrrolidin-2-one], for which the concentration for half-maximal inhibition (IC50) at HDAC8 came to 3600 nM; on HDAC5 it was 74 nM; at HDAC1, 1900 nM.

As for `O=C(C1CCS(=O)(=O)CC1)N(Cc1ccc(-c2noc(C(F)(F)F)n2)cn1)c1cccc(C(F)(F)F)c1` [Example 456, N-({5-[5-(trifluoromethyl)-1,2,4-oxadiazol-3-yl]pyridin-2-yl}methyl)-N-[3-(trifluoromethyl)phenyl]tetrahydro-2H-thiopyran-4-carboxamide 1,1-dioxide], the values for the concentration for half-maximal inhibition (IC50) on HDAC8, at HDAC5 and on HDAC1 were 2500 nM, 2700 nM and 360 nM, respectively.

With `COc1cnnc(OCc2ccc(-c3noc(C(F)(F)F)n3)c(F)c2)c1` [Example 239, 3-({3-fluoro-4-[5-(trifluoromethyl)-1,2,4-oxadiazol-3-yl]phenyl}methoxy)-5-methoxypyridazine], the IC50 was 2400 nM on HDAC8, 190 nM on HDAC5 and 5900 nM at HDAC1.

In the case of `Cc1noc([C@@H]2CCC(=O)N2c2ccc(-c3noc(C(F)(F)F)n3)cc2)n1` [Example 122, (S)-5-(3-methyl-1,2,4-oxadiazol-5-yl)-1-(4-(5-(trifluoromethyl)-1,2,4-oxadiazol-3-yl)phenyl)pyrrolidin-2-one], the IC50 at HDAC8 came to 1400 nM; on HDAC5, 21 nM; at HDAC1 it was 730 nM.

For `Fc1cc(COc2[nH]nc3c2COCC3)ccc1-c1noc(C(F)(F)F)n1` [Example 249, 3-({3-fluoro-4-[5-(trifluoromethyl)-1,2,4-oxadiazol-3-yl]phenyl}methoxy)-2,4,6,7-tetrahydropyrano[4,3-c]pyrazole], the values for the half-inhibitory concentration (IC50) on HDAC8, at HDAC5 and at HDAC1 were 2300 nM, 74 nM and 3100 nM, respectively.

In the case of `O=c1[nH]c2ccccc2n(Cc2ccc(-c3noc(C(F)(F)F)n3)cn2)c1=O` [Example 469, 1-({5-[5-(trifluoromethyl)-1,2,4-oxadiazol-3-yl]pyridin-2-yl}methyl)-1,4-dihydroquinoxaline-2,3-dione], the IC50 on HDAC8 is 1400 nM; on HDAC5 it was 22 nM; on HDAC1 it was 86 nM.

For `Cc1nc(OCc2ccc(-c3noc(C(F)(F)F)n3)c(F)c2)c2cnn(C)c2n1` [Example 248, 4-({3-fluoro-4-[5-(trifluoromethyl)-1,2,4-oxadiazol-3-yl]phenyl}methoxy)-1,6-dimethyl-1H-pyrazolo[3,4-d]pyrimidine], the figures for the half-maximal inhibitory concentration (IC50) at HDAC8, at HDAC5 and on HDAC1 were 2600 nM, 59 nM and 2600 nM, respectively.

Turning to `O=C(C1CCS(=O)(=O)CC1)N(Cc1ccc(-c2noc(C(F)(F)F)n2)cc1F)c1cccc(C(F)(F)F)c1` [Example 490, N-({2-fluoro-4-[5-(trifluoromethyl)-1,2,4-oxadiazol-3-yl]phenyl}methyl)-1,1-dioxo-N-[3-(trifluoromethyl)phenyl]-llambda~6~-thiane-4-carboxamide], the IC50 on HDAC8 stood at 3400 nM; at HDAC5 it was 520 nM; on HDAC1 it was 500 nM.

Take `CC(Oc1nccc(-c2noc(C(F)(F)F)n2)c1Cl)c1cccnc1` (racemic) [Example 256, 3-chloro-2-[1-(pyridin-3-yl)ethoxy]-4-[5-(trifluoromethyl)-1,2,4-oxadiazol-3-yl]pyridine]: the IC50 stood at 2300 nM on HDAC8, 200 nM on HDAC5 and 3300 nM at HDAC1.

`Cn1nccc1OCc1ccc(-c2noc(C(F)(F)F)n2)c(F)c1` [Example 229, 3-(2-fluoro-4-{[(1-methyl-1H-pyrazol-5-yl)oxy]methyl}phenyl)-5-(trifluoromethyl)-1,2,4-oxadiazole]: the results for the IC50 at HDAC8, on HDAC5 and on HDAC1 were 4800 nM, 140 nM and 3700 nM, respectively.

As for `Cc1ccc(NCc2ccc(-c3noc(C(F)(F)F)n3)c(F)c2)cn1` [Example 253, N-({3-fluoro-4-[5-(trifluoromethyl)-1,2,4-oxadiazol-3-yl]phenyl}methyl)-6-methylpyridin-3-amine], the IC50 on HDAC8 turned out to be 3900 nM; on HDAC5, 64 nM; at HDAC1, 1700 nM.

`Fc1cnc(OCc2ccc(-c3noc(C(F)(F)F)n3)c(F)c2)nc1` [Example 230, 5-fluoro-2-({3-fluoro-4-[5-(trifluoromethyl)-1,2,4-oxadiazol-3-yl]phenyl}methoxy)pyrimidine]: the IC50 at HDAC8 came to 540 nM; at HDAC5, 200 nM; on HDAC1 it was 8500 nM.

Turning to `O=C(C1CCS(=O)(=O)CC1)N(Cc1ccc(-c2noc(C(F)(F)F)n2)cn1)c1cccc(F)c1` [Example 55, N-(3-fluorophenyl)-N-((5-(5-(trifluoromethyl)-1,2,4-oxadiazol-3-yl)pyridin-2-yl)methyl)tetrahydro-2H-thiopyran-4-carboxamide 1,1-dioxide], the IC50 amounted to 2300 nM at HDAC8, 1100 nM on HDAC5 and 250 nM at HDAC1.

As to `O=C1NCCCC1NCc1ccc(-c2noc(C(F)(F)F)n2)cn1` (racemic) [Example 458, 3-[({5-[5-(trifluoromethyl)-1,2,4-oxadiazol-3-yl]pyridin-2-yl}methyl)amino]piperidin-2-one], the figures for the IC50 at HDAC8, on HDAC5 and on HDAC1 were 2800 nM, 290 nM and 8300 nM, respectively.

Regarding `CC(C)(C)OC(=O)N1C[C@@H](c2cc(F)cc(F)c2)N(c2ccc(-c3noc(C(F)(F)F)n3)cn2)C(=O)C1C1CCOCC1` (stereo partly drawn) [Example 127, tert-butyl (5R)-5-(3,5-difluorophenyl)-3-oxo-2-(tetrahydro-2H-pyran-4-yl)-4-(5-(5-(trifluoromethyl)-1,2,4-oxadiazol-3-yl)pyridin-2-yl)piperazine-1-carboxylate], the IC50 on HDAC8 is greater than 45000 nM; at HDAC5, 360 nM; at HDAC1 it was 7300 nM.

For the compound `O=C1CCC(c2ccccc2)N1c1cc(F)c(-c2noc(C(F)(F)F)n2)cc1F` (stereo not drawn) [Example 41, 1-(2,5-difluoro-4-(5-(trifluoromethyl)-1,2,4-oxadiazol-3-yl)phenyl)-5-phenylpyrrolidin-2-one], the IC50 on HDAC8 was 6000 nM; at HDAC5, 19 nM; at HDAC1, 610 nM.

For `O=C(COc1cc(-c2noc(C(F)(F)F)n2)ccn1)N1CCOCC1` [Example 190, 1-Morpholino-2-((4-(5-(trifluoromethyl)-1,2,4-oxadiazol-3-yl)pyridin-2-yl)oxy)ethan-1-one], the IC50 on HDAC8 was found to be 1100 nM; on HDAC5, 550 nM; at HDAC1, 2200 nM.

Consider `Fc1cc(COc2nncc3ccccc23)ccc1-c1noc(C(F)(F)F)n1` [Example 228, 1-({3-fluoro-4-[5-(trifluoromethyl)-1,2,4-oxadiazol-3-yl]phenyl}methoxy)phthalazine], for which the IC50 on HDAC8 came to 2000 nM; on HDAC5, 140 nM; on HDAC1, 4300 nM.

Take `O=C(NCc1ccc(-c2noc(C(F)(F)F)n2)cc1)C1CCCC1` [Example 191, N-(4-(5-(Trifluoromethyl)-1,2,4-oxadiazol-3-yl)benzyl)cyclopentanecarboxamide]: the IC50 at HDAC8 turned out to be 2900 nM; at HDAC5, 940 nM; on HDAC1, 2200 nM.

`O=C1COC[C@@H](c2ccccc2)N1c1cc(F)c(-c2noc(C(F)(F)F)n2)cc1F` [Example 160, (R)-4-(2,5-difluoro-4-(5-(trifluoromethyl)-1,2,4-oxadiazol-3-yl)phenyl)-5-phenylmorpholin-3-one]: the IC50 on HDAC8 came to 12000 nM; on HDAC5 it was 3 nM; at HDAC1, 1300 nM.

Consider `CNC(=O)OCc1ccc(-c2noc(C(F)(F)F)n2)cn1` [Example 194, {5-[5-(trifluoromethyl)-1,2,4-oxadiazol-3-yl]pyridin-2-yl}methyl methylcarbamate], for which the IC50 turned out to be 1300 nM on HDAC8, 610 nM on HDAC5 and 1700 nM at HDAC1.
